Legend:
Experiment in all cases: relative viability (nuclei count vs DMSO), 5 days (fraction); higher = more cells survive
Bleomycin + Navitoclax = compound: CC1=C(N=C(N=C1N)[C@H](CC(=O)N)NC[C@@H](C(=O)N)N)C(=O)N[C@@H]([C@H](C2=CN=CN2)OC3C(C(C(C(O3)CO)O)O)OC4C(C(C(C(O4)CO)O)OC(=O)N)O)C(=O)N[C@H](C)[C@H]([C@H](C)C(=O)N[C@@H]([C@@H](C)O)C(=O)NCCC5=NC(=CS5)C6=NC(=CS6)C(=O)NCCC[S+](C)C)O [Bleomycin] + CC1(C)CCC(c2ccc(Cl)cc2)=C(CN2CCN(c3ccc(C(=O)NS(=O)(=O)c4ccc(N[C@H](CCN5CCOCC5)CSc5ccccc5)c(S(=O)(=O)C(F)(F)F)c4)cc3)CC2)C1 [Navitoclax] (partner 0.5 µM); settings: main component drawn
In short: (§1)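 Lung cancer cell lines were pin-tool dosed in 1536-well plates on the day after seeding, with either a lone drug or a fixed anchor-drug dose plus five library-drug doses (not always all listed) in √10 steps. Nuclei were counted on 4× images after 5 days. Relative viability is the ratio of treated-well to vehicle-well nuclei counts, with each value a median of duplicate plates.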

Bleomycin + Foretinib = compound: CC1=C(N=C(N=C1N)[C@H](CC(=O)N)NC[C@@H](C(=O)N)N)C(=O)N[C@@H]([C@H](C2=CN=CN2)OC3C(C(C(C(O3)CO)O)O)OC4C(C(C(C(O4)CO)O)OC(=O)N)O)C(=O)N[C@H](C)[C@H]([C@H](C)C(=O)N[C@@H]([C@@H](C)O)C(=O)NCCC5=NC(=CS5)C6=NC(=CS6)C(=O)NCCC[S+](C)C)O [Bleomycin] + COc1cc2c(Oc3ccc(NC(=O)C4(C(=O)Nc5ccc(F)cc5)CC4)cc3F)ccnc2cc1OCCCN1CCOCC1 [Foretinib] (partner 0.25 µM); settings: main component drawn
In short: as §1

Etoposide = compound: COc1cc([C@@H]2c3cc4c(cc3[C@@H](O[C@@H]3O[C@@H]5CO[C@@H](C)O[C@H]5[C@H](O)[C@H]3O)[C@H]3COC(=O)[C@H]23)OCO4)cc(OC)c1O [Etoposide]
In short: (§2)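 Vehicle-anchored 1536-well plates of lung cancer cell lines, held overnight at 37 °C, were pinned with five library-drug doses (not always all listed) spaced by √10. No medium change followed over the next 5 days, after which the cells were fixed, permeabilised and Hoechst-stained together and imaged at 4×. Nuclei were counted with MetaXpress, and viability is treated-well nuclei over vehicle-well nuclei, taken as a median across plates. Plates passed with control CV below 25% and at least one doubling.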

Bleomycin = compound: CC1=C(N=C(N=C1N)[C@H](CC(=O)N)NC[C@@H](C(=O)N)N)C(=O)N[C@@H]([C@H](C2=CN=CN2)OC3C(C(C(C(O3)CO)O)O)OC4C(C(C(C(O4)CO)O)OC(=O)N)O)C(=O)N[C@H](C)[C@H]([C@H](C)C(=O)N[C@@H]([C@@H](C)O)C(=O)NCCC5=NC(=CS5)C6=NC(=CS6)C(=O)NCCC[S+](C)C)O [Bleomycin]; settings: main component drawn
In short: as §2

Cell Line	relative viability (Bleomycin + Navitoclax; first compound 0.01 µM)	relative viability (Bleomycin + Navitoclax; first compound 0.03162 µM)	relative viability (Bleomycin + Navitoclax; first compound 0.1 µM)	relative viability (Bleomycin + Navitoclax; first compound 0.3162 µM)	relative viability (Bleomycin + Navitoclax; first compound 1 µM)	relative viability (Bleomycin + Foretinib; first compound 0.01 µM)	relative viability (Bleomycin + Foretinib; first compound 0.03162 µM)	relative viability (Bleomycin + Foretinib; first compound 0.1 µM)	relative viability (Bleomycin + Foretinib; first compound 0.3162 µM)	relative viability (Bleomycin + Foretinib; first compound 1 µM)	relative viability (Etoposide; 0.01 µM)	relative viability (Etoposide; 0.03162 µM)	relative viability (Etoposide; 0.3162 µM)	relative viability (Etoposide; 1 µM)	relative viability (Bleomycin; 0.01 µM)	relative viability (Bleomycin; 0.03162 µM)	relative viability (Bleomycin; 0.1 µM)	relative viability (Bleomycin; 0.3162 µM)	relative viability (Bleomycin; 1 µM)	relative viability (Etoposide; 0.1 µM)
NCI-H2170	0.503	0.555	0.578	0.414	0.377	0.992	0.98	0.736	0.855	0.829	0.938	0.985	0.986	0.834	0.939	0.934	0.86	0.703	0.66	–
NCI-H2085	0.994	1.02	0.849	0.508	0.465	1.03	0.845	0.692	0.461	0.396	0.926	1.01	0.868	0.507	0.925	0.913	0.83	0.56	0.515	0.903
NCI-H838	0.768	0.403	0.274	0.19	0.172	0.617	0.368	0.274	0.201	0.204	0.963	1.03	0.773	0.351	0.692	0.436	0.301	0.229	0.213	0.719
NCI-H460	0.343	0.465	0.0823	0.0158	0.0206	0.68	0.651	0.283	0.0633	0.0375	0.899	0.933	0.164	0.0591	0.738	0.661	0.483	0.0877	0.0714	0.785
LOU-NH91	0.553	0.437	0.362	0.266	0.199	0.781	0.663	0.649	0.4	0.309	0.978	1.01	0.826	0.486	0.838	0.689	0.614	0.448	0.339	0.853
NCI-H322M	1.13	1.36	1.36	1.28	0.597	0.79	0.951	0.865	0.563	0.401	0.947	1.05	0.838	0.52	0.861	1.02	0.928	0.568	0.54	0.822
NCI-H520	0.858	0.957	1.1	0.927	0.656	0.677	0.742	0.743	0.37	0.537	0.881	0.879	0.87	0.709	0.901	0.92	0.816	0.747	0.602	0.636
NCI-H727	0.388	0.339	0.351	0.181	0.286	0.902	0.711	0.641	–	0.705	0.945	1.04	0.87	0.852	0.891	0.777	0.831	0.391	0.687	0.586
NCI-H1793	0.355	0.404	0.298	0.177	0.163	0.717	0.724	0.734	0.269	0.218	0.813	1.12	0.758	0.334	0.817	0.772	0.754	0.293	0.226	–
NCI-H1734	0.719	0.571	0.518	0.24	0.139	0.773	0.564	0.631	0.344	0.228	0.979	1.2	0.676	0.304	0.811	0.743	0.717	0.411	0.287	0.597
LXF-289	0.877	0.879	0.799	0.35	0.179	0.933	0.888	0.804	0.36	0.14	1.05	1.04	0.878	0.311	0.94	0.972	0.912	0.539	0.231	1.13
H3255	0.395	0.596	0.495	0.229	0.179	0.705	0.813	0.699	0.553	0.432	0.962	1.09	0.725	0.433	0.837	1.02	0.821	0.61	0.502	0.73
201T	1.17	1.13	1.18	1.16	1.04	0.902	0.928	0.825	0.548	0.336	0.906	0.988	0.881	0.526	0.909	0.95	0.922	0.756	0.634	0.845
NCI-H2228	1.02	0.625	0.664	0.437	0.363	0.853	0.741	0.695	0.274	0.191	0.926	1.1	0.582	0.195	0.902	1.01	0.899	0.559	0.311	0.7
